According to patent publication US7851510B2, “Gossypol derivatives, production method thereof and uses of same” (Centre National de la Recherche Scientifique (C.N.R.S.), priority 2004, dated 2010):
Where two headings read alike, the source gives them in different places.

Legend:
Experiment in all cases: Protein kinase activity in the presence of compound
Format in all cases: biochemical
MAPKAP-K1a = MAPKAP-K1a (Homo sapiens, UniProt Q15418); conditions: read-out: Residual activity MAPKAP-K1a
Experimental: (§1) The action of the compound of formula (14) was tested on a selection of 29 different protein kinases. The activity of these enzymes was measured in the presence of 10 μM of compound, according to the general methodology described by Bain et al. (2003) Biochem. J. 371:199-204 and Davies et al. (2000) Biochem. J. 351:95-105.
(§2) Residual enzyme activity of protein kinases in the presence of inhibitor compounds at the concentration given (expressed as a percentage of the activity measured in the absence of inhibitors). The results obtained for gossypol and gossypolone are given by way of comparison.

ROCK-II = ROCK-II (Homo sapiens, UniProt O75116); conditions: read-out: Residual activity ROCK-II
ROCK-II, sequence (O75116 whole entry, species assumed): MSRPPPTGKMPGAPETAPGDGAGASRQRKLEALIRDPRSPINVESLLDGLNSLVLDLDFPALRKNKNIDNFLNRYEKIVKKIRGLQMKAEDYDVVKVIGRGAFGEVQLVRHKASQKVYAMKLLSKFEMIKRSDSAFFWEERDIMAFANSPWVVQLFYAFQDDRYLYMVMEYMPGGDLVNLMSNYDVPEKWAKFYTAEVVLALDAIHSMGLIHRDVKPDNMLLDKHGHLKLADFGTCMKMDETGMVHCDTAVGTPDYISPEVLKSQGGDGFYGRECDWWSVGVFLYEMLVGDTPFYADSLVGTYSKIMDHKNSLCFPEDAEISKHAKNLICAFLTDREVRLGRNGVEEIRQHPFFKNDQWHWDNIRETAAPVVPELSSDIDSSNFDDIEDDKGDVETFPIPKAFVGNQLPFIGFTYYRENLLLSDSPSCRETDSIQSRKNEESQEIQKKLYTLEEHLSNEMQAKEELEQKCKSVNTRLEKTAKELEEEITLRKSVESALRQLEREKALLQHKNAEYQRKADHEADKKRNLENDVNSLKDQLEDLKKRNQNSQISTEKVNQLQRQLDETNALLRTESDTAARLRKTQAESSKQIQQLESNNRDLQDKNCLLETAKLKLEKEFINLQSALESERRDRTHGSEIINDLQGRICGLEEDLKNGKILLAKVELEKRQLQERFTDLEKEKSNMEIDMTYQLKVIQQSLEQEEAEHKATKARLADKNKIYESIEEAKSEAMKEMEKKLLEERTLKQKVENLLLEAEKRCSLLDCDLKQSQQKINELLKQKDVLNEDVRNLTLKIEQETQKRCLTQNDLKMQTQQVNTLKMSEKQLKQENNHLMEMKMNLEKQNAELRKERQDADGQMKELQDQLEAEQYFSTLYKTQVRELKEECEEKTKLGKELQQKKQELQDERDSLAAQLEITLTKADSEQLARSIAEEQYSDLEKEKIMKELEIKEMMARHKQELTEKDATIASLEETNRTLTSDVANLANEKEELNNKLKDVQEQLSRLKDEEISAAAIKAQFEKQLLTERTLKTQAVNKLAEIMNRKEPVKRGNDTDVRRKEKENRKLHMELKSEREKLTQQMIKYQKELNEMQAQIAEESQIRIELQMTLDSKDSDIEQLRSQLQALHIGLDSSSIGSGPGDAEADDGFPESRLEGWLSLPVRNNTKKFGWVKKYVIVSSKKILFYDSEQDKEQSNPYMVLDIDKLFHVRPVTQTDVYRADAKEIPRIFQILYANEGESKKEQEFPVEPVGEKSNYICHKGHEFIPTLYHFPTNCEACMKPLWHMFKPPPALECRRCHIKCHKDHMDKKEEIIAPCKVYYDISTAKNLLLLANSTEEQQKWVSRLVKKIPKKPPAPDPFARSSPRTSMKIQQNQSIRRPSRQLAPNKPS
Experimental: as §1, §2

CHK1 = target: T1, CHK1 (Homo sapiens, UniProt O14757); conditions: read-out: Residual activity CHK1
T1 sequence (O14757 1-476): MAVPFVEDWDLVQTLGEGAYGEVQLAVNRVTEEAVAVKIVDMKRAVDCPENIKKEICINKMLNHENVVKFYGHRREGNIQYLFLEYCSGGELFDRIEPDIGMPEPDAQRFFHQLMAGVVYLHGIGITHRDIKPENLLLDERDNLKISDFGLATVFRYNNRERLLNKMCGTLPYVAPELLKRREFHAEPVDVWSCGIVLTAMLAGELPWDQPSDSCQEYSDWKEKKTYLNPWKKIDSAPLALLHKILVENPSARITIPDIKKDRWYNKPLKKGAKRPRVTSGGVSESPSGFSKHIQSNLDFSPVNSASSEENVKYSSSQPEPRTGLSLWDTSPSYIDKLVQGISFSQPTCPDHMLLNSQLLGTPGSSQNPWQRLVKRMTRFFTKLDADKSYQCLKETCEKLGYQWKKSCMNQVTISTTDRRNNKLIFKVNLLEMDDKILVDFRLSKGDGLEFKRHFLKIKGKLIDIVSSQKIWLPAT
Experimental: as §1, §2

SAPK2a/p38 = SAPK2a/p38 (Homo sapiens, UniProt Q16539); conditions: read-out: Residual activity SAPK2a/p38
SAPK2a/p38, sequence (Q16539 whole entry): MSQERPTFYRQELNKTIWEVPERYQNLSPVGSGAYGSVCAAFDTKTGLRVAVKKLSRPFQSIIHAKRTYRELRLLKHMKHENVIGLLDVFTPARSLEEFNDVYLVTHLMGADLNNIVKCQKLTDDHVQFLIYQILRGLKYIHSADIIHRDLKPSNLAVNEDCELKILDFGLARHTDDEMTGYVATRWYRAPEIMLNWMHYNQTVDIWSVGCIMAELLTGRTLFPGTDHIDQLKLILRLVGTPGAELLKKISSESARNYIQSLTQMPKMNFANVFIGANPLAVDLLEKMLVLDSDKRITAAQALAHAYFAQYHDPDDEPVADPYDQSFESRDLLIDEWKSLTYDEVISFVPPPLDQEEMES
Experimental: as §1, §2

MAPK2/ERK2 = MAPK2/ERK2 (Homo sapiens, UniProt P28482); conditions: read-out: Residual activity MAPK2/ERK2
MAPK2/ERK2, sequence (P28482 whole entry): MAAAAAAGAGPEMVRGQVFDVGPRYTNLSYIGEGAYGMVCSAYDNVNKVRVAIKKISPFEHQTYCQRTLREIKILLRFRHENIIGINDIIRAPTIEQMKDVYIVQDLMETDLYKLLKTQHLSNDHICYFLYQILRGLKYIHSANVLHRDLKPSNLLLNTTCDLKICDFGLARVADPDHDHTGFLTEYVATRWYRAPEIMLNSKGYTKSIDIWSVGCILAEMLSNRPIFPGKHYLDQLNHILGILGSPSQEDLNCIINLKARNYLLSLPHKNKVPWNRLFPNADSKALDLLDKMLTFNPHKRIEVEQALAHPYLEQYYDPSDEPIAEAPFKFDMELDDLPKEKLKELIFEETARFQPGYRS
Experimental: as §1, §2

SAPK3/p38g = target: T2, SAPK3/p38g (Homo sapiens, UniProt P53778); conditions: read-out: Residual activity SAPK3/p38g
T2 sequence (P53778 1-367): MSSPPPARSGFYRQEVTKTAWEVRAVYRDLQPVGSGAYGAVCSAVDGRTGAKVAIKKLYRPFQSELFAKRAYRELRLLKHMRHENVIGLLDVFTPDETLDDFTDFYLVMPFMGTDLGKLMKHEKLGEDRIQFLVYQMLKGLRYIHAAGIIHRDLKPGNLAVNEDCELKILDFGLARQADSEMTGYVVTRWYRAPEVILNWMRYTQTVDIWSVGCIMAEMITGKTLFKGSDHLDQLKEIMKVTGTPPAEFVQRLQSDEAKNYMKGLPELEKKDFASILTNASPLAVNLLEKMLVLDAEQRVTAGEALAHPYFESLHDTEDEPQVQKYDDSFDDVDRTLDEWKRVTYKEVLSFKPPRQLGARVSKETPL
Experimental: as §1, §2

NEK6 = NEK6 (Homo sapiens, UniProt Q9HC98); conditions: read-out: Residual activity NEK6
Experimental: as §1, §2

CK2 = CK2 (Homo sapiens, UniProt P68400); conditions: read-out: Residual activity CK2
CK2, sequence (P68400 whole entry): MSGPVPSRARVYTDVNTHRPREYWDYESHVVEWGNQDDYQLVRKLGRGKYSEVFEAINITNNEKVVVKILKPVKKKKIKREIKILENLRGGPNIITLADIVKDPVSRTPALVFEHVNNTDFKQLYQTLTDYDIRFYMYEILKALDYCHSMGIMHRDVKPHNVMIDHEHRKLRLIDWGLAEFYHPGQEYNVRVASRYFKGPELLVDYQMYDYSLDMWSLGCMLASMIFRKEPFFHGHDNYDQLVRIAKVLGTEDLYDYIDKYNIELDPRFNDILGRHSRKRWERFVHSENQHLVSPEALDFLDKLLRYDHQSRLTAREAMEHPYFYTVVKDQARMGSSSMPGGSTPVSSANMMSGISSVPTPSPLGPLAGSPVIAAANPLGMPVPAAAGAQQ
Experimental: as §1, §2

PHK = PHK (Oryctolagus cuniculus, UniProt P00518); conditions: read-out: Residual activity PHK
Experimental: as §1, §2

AMPK = conditions: 10 μM compound; percentage of the activity measured in the absence of inhibitors
Experimental: as §1, §2

MKK1 = MKK1 (Homo sapiens, UniProt Q02750); conditions: read-out: Residual activity MKK1
Experimental: as §1, §2

PKB?ph = conditions: 10 μM compound; percentage of the activity measured in the absence of inhibitors
Experimental: as §1, §2

PKA = PKA (Homo sapiens, UniProt P17612); conditions: read-out: Residual activity PKA
Experimental: as §1, §2

JNK/SAPK1c = JNK/SAPK1c (Homo sapiens, UniProt P45983); conditions: read-out: Residual activity JNK/SAPK1c
JNK/SAPK1c, sequence (P45983 whole entry): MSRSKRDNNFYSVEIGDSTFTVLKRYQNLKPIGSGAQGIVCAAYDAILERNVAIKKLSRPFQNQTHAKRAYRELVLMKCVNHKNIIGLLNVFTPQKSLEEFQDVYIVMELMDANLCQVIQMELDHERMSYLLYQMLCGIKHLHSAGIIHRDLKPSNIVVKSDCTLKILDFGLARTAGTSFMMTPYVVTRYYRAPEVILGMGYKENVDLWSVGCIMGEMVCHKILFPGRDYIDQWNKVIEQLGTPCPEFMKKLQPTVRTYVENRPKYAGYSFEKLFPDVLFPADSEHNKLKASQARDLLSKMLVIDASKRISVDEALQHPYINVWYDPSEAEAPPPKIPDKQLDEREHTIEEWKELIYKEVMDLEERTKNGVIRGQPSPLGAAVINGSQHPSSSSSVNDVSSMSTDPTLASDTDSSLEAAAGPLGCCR
Experimental: as §1, §2

p70 S6K = conditions: 10 μM compound; percentage of the activity measured in the absence of inhibitors
Experimental: as §1, §2

Lck = Lck (Homo sapiens, UniProt P06239); conditions: read-out: Residual activity Lck
Lck, sequence (P06239 whole entry, species assumed): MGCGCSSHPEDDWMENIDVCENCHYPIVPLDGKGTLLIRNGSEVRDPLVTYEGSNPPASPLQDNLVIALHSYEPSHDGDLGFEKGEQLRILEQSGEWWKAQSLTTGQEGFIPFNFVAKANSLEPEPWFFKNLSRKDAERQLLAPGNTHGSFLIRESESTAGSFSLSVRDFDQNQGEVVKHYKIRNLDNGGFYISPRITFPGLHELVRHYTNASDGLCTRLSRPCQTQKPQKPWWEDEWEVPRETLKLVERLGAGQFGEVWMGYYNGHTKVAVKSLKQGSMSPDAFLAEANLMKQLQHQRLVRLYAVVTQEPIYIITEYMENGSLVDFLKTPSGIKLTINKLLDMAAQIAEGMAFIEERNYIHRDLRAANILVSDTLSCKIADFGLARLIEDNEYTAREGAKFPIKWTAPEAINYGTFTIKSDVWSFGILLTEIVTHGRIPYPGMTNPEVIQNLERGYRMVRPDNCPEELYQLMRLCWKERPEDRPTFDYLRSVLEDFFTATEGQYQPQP
Experimental: as §1, §2

SAPK2b/p38β2 = SAPK2b/p38β2 (Homo sapiens, UniProt Q15759); conditions: read-out: Residual activity SAPK2b/p38β2
SAPK2b/p38β2, sequence (Q15759 whole entry): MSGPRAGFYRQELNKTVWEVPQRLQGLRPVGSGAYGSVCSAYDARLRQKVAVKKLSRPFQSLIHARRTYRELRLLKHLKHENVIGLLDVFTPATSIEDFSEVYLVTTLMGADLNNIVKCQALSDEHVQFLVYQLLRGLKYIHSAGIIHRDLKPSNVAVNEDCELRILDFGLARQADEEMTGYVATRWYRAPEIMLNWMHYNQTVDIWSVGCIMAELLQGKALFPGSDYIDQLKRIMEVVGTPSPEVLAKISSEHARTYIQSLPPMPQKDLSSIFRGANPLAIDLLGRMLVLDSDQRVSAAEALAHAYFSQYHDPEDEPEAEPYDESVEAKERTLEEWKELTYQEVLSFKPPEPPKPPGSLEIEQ
Experimental: as §1, §2

CSK = CSK (Homo sapiens, UniProt P41240); conditions: read-out: Residual activity CSK
CSK, sequence (P41240 whole entry, species assumed): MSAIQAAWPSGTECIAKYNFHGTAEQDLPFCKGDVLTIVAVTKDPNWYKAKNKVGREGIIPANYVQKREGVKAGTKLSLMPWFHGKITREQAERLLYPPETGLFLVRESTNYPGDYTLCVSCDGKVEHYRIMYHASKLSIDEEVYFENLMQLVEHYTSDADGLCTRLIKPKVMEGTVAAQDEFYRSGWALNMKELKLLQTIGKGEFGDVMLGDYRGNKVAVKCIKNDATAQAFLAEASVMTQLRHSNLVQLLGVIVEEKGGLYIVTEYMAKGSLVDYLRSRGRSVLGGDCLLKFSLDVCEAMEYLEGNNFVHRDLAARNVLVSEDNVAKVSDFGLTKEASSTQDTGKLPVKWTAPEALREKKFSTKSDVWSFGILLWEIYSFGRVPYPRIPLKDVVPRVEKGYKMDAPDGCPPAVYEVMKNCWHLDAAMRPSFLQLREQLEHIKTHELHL
Experimental: as §1, §2

SAPK4/p38d = target: T3, SAPK4/p38d (Homo sapiens, UniProt O15264); conditions: read-out: Residual activity SAPK4/p38d
T3 sequence (O15264 1-365): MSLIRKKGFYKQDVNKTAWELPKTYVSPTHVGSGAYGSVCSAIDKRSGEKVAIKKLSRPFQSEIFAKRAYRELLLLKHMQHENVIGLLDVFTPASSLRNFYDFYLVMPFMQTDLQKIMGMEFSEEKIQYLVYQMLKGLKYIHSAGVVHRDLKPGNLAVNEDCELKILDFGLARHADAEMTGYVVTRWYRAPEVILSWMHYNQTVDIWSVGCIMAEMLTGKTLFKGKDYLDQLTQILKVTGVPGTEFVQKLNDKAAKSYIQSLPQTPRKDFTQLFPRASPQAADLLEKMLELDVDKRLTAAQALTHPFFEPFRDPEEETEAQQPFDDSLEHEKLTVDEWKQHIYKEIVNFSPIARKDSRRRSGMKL
Experimental: as §1, §2

[1] = 10 μM compound, percentage of the activity measured in the absence of inhibitors

MAPKAP-K1a, sequence (Q15418 whole entry, species assumed): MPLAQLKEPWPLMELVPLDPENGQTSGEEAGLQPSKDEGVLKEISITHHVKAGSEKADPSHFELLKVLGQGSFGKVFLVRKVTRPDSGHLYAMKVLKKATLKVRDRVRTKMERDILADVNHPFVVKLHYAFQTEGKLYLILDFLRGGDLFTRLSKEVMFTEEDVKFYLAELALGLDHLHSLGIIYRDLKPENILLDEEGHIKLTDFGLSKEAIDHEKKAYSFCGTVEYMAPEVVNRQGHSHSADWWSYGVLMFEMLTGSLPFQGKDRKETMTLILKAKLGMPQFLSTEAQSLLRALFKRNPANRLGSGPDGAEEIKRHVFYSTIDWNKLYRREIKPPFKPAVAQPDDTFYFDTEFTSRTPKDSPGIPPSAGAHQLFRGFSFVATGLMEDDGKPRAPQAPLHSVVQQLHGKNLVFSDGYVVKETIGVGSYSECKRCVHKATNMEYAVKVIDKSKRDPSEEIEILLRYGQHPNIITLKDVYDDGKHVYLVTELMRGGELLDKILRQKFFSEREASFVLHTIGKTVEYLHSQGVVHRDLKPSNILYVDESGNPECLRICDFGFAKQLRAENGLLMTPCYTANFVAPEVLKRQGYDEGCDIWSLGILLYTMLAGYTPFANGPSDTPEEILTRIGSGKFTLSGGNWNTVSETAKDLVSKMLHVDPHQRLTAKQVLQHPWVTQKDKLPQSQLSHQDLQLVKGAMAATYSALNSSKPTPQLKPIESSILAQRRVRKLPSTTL

CC1=C(C2=C(C)C(=O)c3c(c(O)c(O)c(O)c3C(C)C)C2=O)C(=O)c2c(O)c(O)c(O)c(C(C)C)c2C1=O [Compound (4), 6,7,8,6′,7′,8′-hexahydroxy-5,5′-diisopropyl-3,3′-dimethyl-[2.2′]binaphthalenyl-1,4,1′,4′-tetraone]
remaining activity at 10 µM (MAPKAP-K1a): 58% | remaining activity at 10 µM (ROCK-II): 75% | remaining activity at 10 µM (CHK1): 127% | remaining activity at 10 µM (SAPK2a/p38): 105% | remaining activity at 10 µM (MAPK2/ERK2): 52% | remaining activity at 10 µM (SAPK3/p38g): 89% | remaining activity at 10 µM (NEK6): 86% | remaining activity at 10 µM (CK2): 80% | remaining activity at 10 µM (PHK): 47% | Residual activity AMPK (AMPK): 61% | remaining activity at 10 µM (MKK1): 59% | Residual activity PKB?ph (PKB?ph): 39% | remaining activity at 10 µM (PKA): 69% | remaining activity at 10 µM (JNK/SAPK1c): 105% | Residual activity p70 S6K (p70 S6K): 34% | remaining activity at 10 µM (Lck): 71% | remaining activity at 10 µM (SAPK2b/p38β2): 124% | remaining activity at 10 µM (CSK): 93% | remaining activity at 10 µM (SAPK4/p38d): 88%

CC1=C(C2=C(C)C(=O)c3c(c(CSCCO)c(O)c(O)c3C(C)C)C2=O)C(=O)c2c(CSCCO)c(O)c(O)c(C(C)C)c2C1=O [Compound (14), 6,7,6′,7′-tetrahydroxy-8,8′-bis-(2-hydroxy-ethylsulphanylmethyl)-5,5′-diisopropyl-3,3′-dimethyl-[2,2′]binaphthalenyl-1,4,1′,4′-tetraone]
remaining activity at 10 µM (MAPKAP-K1a; [1]): 60% | remaining activity at 10 µM (ROCK-II; [1]): 73% | remaining activity at 10 µM (CHK1; [1]): 47% | remaining activity at 10 µM (SAPK2a/p38; [1]): 102% | remaining activity at 10 µM (MAPK2/ERK2; [1]): 58% | remaining activity at 10 µM (SAPK3/p38g; [1]): 76% | remaining activity at 10 µM (NEK6; [1]): 81% | remaining activity at 10 µM (CK2; [1]): 85% | remaining activity at 10 µM (PHK; [1]): 27% | Residual activity AMPK (AMPK): 70% | remaining activity at 10 µM (MKK1; [1]): 90% | Residual activity PKB?ph (PKB?ph): 76% | remaining activity at 10 µM (PKA; [1]): 59% | remaining activity at 10 µM (JNK/SAPK1c; [1]): 88% | Residual activity p70 S6K (p70 S6K): 52% | remaining activity at 10 µM (Lck; [1]): 54% | remaining activity at 10 µM (SAPK2b/p38β2; [1]): 113% | remaining activity at 10 µM (CSK; [1]): 60% | remaining activity at 10 µM (SAPK4/p38d; [1]): 85%

Cc1cc2c(C(C)C)c(O)c(O)c(C=O)c2c(O)c1-c1c(C)cc2c(C(C)C)c(O)c(O)c(C=O)c2c1O [Gossypol, gossypol]
remaining activity at 10 µM (MAPKAP-K1a): 77% | remaining activity at 10 µM (ROCK-II): 80% | remaining activity at 10 µM (CHK1): 9% | remaining activity at 10 µM (SAPK2a/p38): 99% | remaining activity at 10 µM (MAPK2/ERK2): 65% | remaining activity at 10 µM (SAPK3/p38g): 108% | remaining activity at 10 µM (NEK6): 92% | remaining activity at 10 µM (CK2): 80% | remaining activity at 10 µM (PHK): 23% | Residual activity AMPK (AMPK): 72% | remaining activity at 10 µM (MKK1): 86% | Residual activity PKB?ph (PKB?ph): 94% | remaining activity at 10 µM (PKA): 47% | remaining activity at 10 µM (JNK/SAPK1c): 90% | Residual activity p70 S6K (p70 S6K): 110% | remaining activity at 10 µM (Lck): 76% | remaining activity at 10 µM (SAPK2b/p38β2): 125% | remaining activity at 10 µM (CSK): 103% | remaining activity at 10 µM (SAPK4/p38d): 66%

CC1=C(C2=C(C)C(=O)c3c(c(C=O)c(O)c(O)c3C(C)C)C2=O)C(=O)c2c(C=O)c(O)c(O)c(C(C)C)c2C1=O [Gossypolone, gossypolone, reference compound]
remaining activity at 10 µM (MAPKAP-K1a): 55% | remaining activity at 10 µM (ROCK-II): 54% | remaining activity at 10 µM (CHK1): 24% | remaining activity at 10 µM (SAPK2a/p38): 108% | remaining activity at 10 µM (MAPK2/ERK2): 46% | remaining activity at 10 µM (SAPK3/p38g): 83% | remaining activity at 10 µM (NEK6): 89% | remaining activity at 10 µM (CK2): 79% | remaining activity at 10 µM (PHK): 21% | Residual activity AMPK (AMPK): 66% | remaining activity at 10 µM (MKK1): 76% | Residual activity PKB?ph (PKB?ph): 53% | remaining activity at 10 µM (PKA): 69% | remaining activity at 10 µM (JNK/SAPK1c): 86% | Residual activity p70 S6K (p70 S6K): 35% | remaining activity at 10 µM (Lck): 60% | remaining activity at 10 µM (SAPK2b/p38β2): 102% | remaining activity at 10 µM (CSK): 64% | remaining activity at 10 µM (SAPK4/p38d): 75%
